From ChEMBL document CHEMBL1127015, “Centrally acting serotonergic and dopaminergic agents. 1. Synthesis and structure-activity relationships of 2,3,3a,4,5,9b-hexahydro-1H-benz[e]indole derivatives” (J Med Chem, 1993)
Where “and” joins values, the source holds several entries; their conditions need not be identical. Identical values can stand only once.

Assays:
[1] = test system: Mus musculus; assay: Antagonism of apomorphine for 10-20 minutes in reserpinized mice when a dose of 3.6 micro mol/kg is administered intraperitoneally; format: functional
[2] = test system: Mus musculus; assay: Increase in locomotor activity in reserpinized mice following 0.4 umol/kg i.p.; format: functional
[3] = test system: Mus musculus; assay: Antagonism of apomorphine effects in reserpinized mice following 0.4 umol/kg i.p.; format: functional
[4] = test system: Mus musculus; assay: Antagonism of apomorphine for 10-20 minutes in reserpinized mice when a dose of 36 micro mol/kg is administered intraperitoneally; format: functional
[5] = test system: Mus musculus; assay: Antagonism of apomorphine in reserpinized mice when a dose of 36 micro mol/kg is administered intraperitoneally; format: functional
[6] = test system: Rattus norvegicus; assay: Inhibition of firing rates of dopaminergic neurons in the substantia nigra pars compacta by intravenous injection in rats; format: functional
[7] = test system: Mus musculus; assay: Antagonism of apomorphine effects for 10-20 minutes in reserpinized mice following 0.4 umol/kg i.p.; format: functional
[8] = test system: Mus musculus; assay: Antagonism of apomorphine for 0-10 minutes in reserpinized mice when a dose of 3.6 micro mol/kg is administered intraperitoneally; format: functional
[9] = test system: Mus musculus; assay: Ability to stimulate dopaminergic systems by effect on locomotor activity in reserpinized mice when a dose of 3.6 micro mol/kg is administered intraperitoneally; format: functional
[10] = test system: Mus musculus; assay: Antagonism of apomorphine effects for 0-10 minutes in reserpinized mice following 0.4 umol/kg i.p.; format: functional; set-up: unit not given beside the values
[11] = target: T1, D(2) dopamine receptor (Homo sapiens, UniProt P14416); assay: Intrinsic activity from GTP shift using membranes from CHO cells transfected with mammalian dopamine receptor D2.; format: cell membranes
T1 sequence (P14416 whole entry): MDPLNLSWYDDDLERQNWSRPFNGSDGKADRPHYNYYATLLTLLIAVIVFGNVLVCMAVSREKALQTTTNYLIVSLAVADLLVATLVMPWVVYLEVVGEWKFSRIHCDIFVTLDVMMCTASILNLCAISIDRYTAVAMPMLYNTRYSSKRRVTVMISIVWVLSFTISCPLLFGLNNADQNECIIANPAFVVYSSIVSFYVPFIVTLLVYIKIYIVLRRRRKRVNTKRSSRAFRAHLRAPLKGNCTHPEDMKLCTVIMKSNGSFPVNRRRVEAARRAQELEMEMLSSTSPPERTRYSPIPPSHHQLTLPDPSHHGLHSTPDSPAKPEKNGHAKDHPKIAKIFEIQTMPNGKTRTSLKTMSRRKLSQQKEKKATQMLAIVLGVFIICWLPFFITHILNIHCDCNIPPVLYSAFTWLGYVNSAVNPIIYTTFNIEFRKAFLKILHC

[12] = target: T2, D(2) dopamine receptor (Rattus norvegicus, UniProt P61169); assay: Binding affinity against [3H]raclopride-labeled dopamine receptor D2 in rat striatum.; format: tissue-based
T2 sequence (P61169 whole entry): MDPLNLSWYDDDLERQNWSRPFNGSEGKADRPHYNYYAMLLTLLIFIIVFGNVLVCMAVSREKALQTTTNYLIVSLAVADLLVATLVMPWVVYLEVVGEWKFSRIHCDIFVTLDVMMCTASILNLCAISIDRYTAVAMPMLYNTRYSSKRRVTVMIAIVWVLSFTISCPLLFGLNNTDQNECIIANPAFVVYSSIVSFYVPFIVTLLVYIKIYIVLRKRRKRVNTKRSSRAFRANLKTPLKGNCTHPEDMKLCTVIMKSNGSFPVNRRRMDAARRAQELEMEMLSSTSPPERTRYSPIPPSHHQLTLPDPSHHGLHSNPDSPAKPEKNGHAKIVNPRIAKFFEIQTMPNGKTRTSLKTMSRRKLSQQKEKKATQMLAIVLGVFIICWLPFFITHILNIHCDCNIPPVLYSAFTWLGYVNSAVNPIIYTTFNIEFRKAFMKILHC

[13] = test system: Mus musculus; assay: Ability to stimulate dopaminergic systems by effect on locomotor activity in reserpinized mice when a dose of 36 micro mol/kg is administered intraperitoneally; format: functional
[14] = test system: Mus musculus; assay: Antagonism of apomorphine for 0-10 minutes in reserpinized mice when a dose of 36 micro mol/kg is administered intraperitoneally; format: functional
[15] = test system: Mus musculus; assay: Antagonism of apomorphine in reserpinized mice when a dose of 3.6 micro mol/kg is administered intraperitoneally; format: functional
[16] = test system: Rattus norvegicus; assay: Inhibition of firing rates of serotonergic neurons in the substantia nigra pars compacta by intravenous injection in rats.; format: functional
[17] = test system: Mus musculus; assay: Ability to stimulate dopaminergic systems by effect on locomotor activity in reserpinized mice when a dose of 3.8 micro mol/kg is administered intraperitoneally; format: functional
[18] = organism: Rattus norvegicus; assay: Effect on the synthesis rates of serotonin (5-HTP accumulation) in the rat ventral limbic brain region at 3.8uMkg; format: functional, Limbic system
[19] = test system: Mus musculus; assay: Antagonism of apomorphine in reserpinized mice when a dose of 3.8 micro mol/kg is administered intraperitoneally; format: functional
[20] = test system: Mus musculus; assay: Antagonism of apomorphine for 10-20 minutes in reserpinized mice when a dose of 3.8 micro mol/kg is administered intraperitoneally; format: functional
[21] = test system: Mus musculus; assay: Antagonism of apomorphine in reserpinized mice when a dose of 38 micro mol/kg is administered intraperitoneally; format: functional
[22] = test system: Mus musculus; assay: Antagonism of apomorphine for 0-10 minutes in reserpinized mice when a dose of 38 micro mol/kg is administered intraperitoneally; format: functional
[23] = target: T1, D(2) dopamine receptor; assay: Binding affinity against [3H]U-86,170-labeled dopamine receptor D2 in cloned CHO cells; format: cell-based
[24] = test system: Mus musculus; assay: Antagonism of apomorphine for 0-10 minutes in reserpinized mice when a dose of 3.8 micro mol/kg is administered intraperitoneally; format: functional
[25] = test system: Mus musculus; assay: Antagonism of apomorphine for 10-20 minutes in reserpinized mice when a dose of 38 micro mol/kg is administered intraperitoneally; format: functional
[26] = test system: Mus musculus; assay: Ability to stimulate dopaminergic systems by effect on locomotor activity in reserpinized mice when a dose of 38 micro mol/kg is administered intraperitoneally; format: functional
[27] = organism: Rattus norvegicus; assay: Effect on the synthesis rates of serotonin (5-HTP accumulation) in the rat ventral limbic brain region at 3.8uMkg.; format: functional, Limbic system
[28] = test system: Mus musculus; assay: Maximum decrease in temperature when compound is administered subcutaneously; format: functional
[29] = test system: Rattus norvegicus; assay: Inhibition of firing rates of dopaminergic neurons in the substantia nigra pars compacta by intravenous injection in rats.; format: functional; conditions: Rattus norvegicus, Substantia nigra pars compacta, iv; read-out: ED50
[30] = test system: Mus musculus; assay: Effective dose on hypothermia in mouse when administered subcutaneously; format: functional; conditions: sc
[31] = organism: Rattus norvegicus; assay: Effect on the synthesis rates of serotonin (5-HTP accumulation) in the rat ventral limbic brain region at 10.6uMkg.; format: functional, Limbic system
[32] = organism: Rattus norvegicus; assay: Effect on the synthesis rates of serotonin (5-HTP accumulation) in the rat ventral limbic brain region at 10.6uMkg; format: functional, Limbic system
[33] = organism: Rattus norvegicus; assay: Effect on the synthesis rates of serotonin (5-HTP accumulation) in the rat ventral limbic brain region at 10.2uMkg.; format: functional, Limbic system
[34] = target: T2, D(2) dopamine receptor; assay: Inhibition concentration against [3H]raclopride-labeled dopamine receptor D2 in rat striatum was estimated by single point experiment. compound was run at 1 uM; format: tissue-based
[35] = test system: Rattus norvegicus; assay: Effect on the synthesis rates of serotonin in the rat ventral limbic brain region 4.0 micro mol/kg. Values are given as percent change from the control; format: functional, Limbic system
[36] = test system: Rattus norvegicus; assay: Effect on the synthesis rates of dopamine in the rat ventral limbic brain region at 4.0 micro mol/kg. Values are given as percent change from the control (*p<0.05); format: functional, Limbic system
[37] = test system: Mus musculus; assay: Effective dose on hypothermia in mouse when administered subcutaneously (95% confidence levels); format: functional; conditions: sc

With `C=CCN1CC[C@H]2c3cccc(OC)c3CC[C@H]21` the Locomotor activity [1] was 105, the Locomotor activity [2] was 17 and the Locomotor activity [3] was 78. For the same molecule, the Locomotor activity [4] was 38, the Locomotor activity [5] was 21 and the ED50 [6] was 0.91 µmol/kg. It also gave a Locomotor activity [7] of 120, a Locomotor activity [8] of 130 and a Locomotor activity [9] of 5. It also gave a Locomotor activity [10] of 164, an Intrinsic activity [11] of 0% and a Ki [12] of 25 nM. For the same molecule, the Locomotor activity [13] was 3, the Locomotor activity [14] was 52 and the Locomotor activity [15] was 62. For the same molecule, the ED50 [16] was 0.24 µmol/kg.
In the case of `C=CCN1CCC2c3cccc(O)c3CC[C@H]21` (single isomer, unassigned; (-)), the Locomotor activity [17] is reported as 8, the Control [18] is reported as 45% and the Locomotor activity [19] is reported as 62. The Locomotor activity [20] was 115, the Locomotor activity [2] was 73 and the Locomotor activity [21] was 7. It also gave a Locomotor activity [3] of 54, a Locomotor activity [22] of 22 and a Locomotor activity [7] of 105. For the same molecule, the Ki [23] was 108 nM, the Locomotor activity [10] was 110 and the Locomotor activity [24] was 97. The Intrinsic activity [11] was 22%, the Ki [12] was 49 nM and the Locomotor activity [25] was 23. For the same molecule, the Locomotor activity [26] was 3 and the Control [27] was -0.3%.
With `C=CCN1CC[C@@H]2c3cccc(O)c3CC[C@H]21` (racemic) the Locomotor activity [17] was 4, the Control [18] was 73% and the Locomotor activity [19] was 67. It also gave a Locomotor activity [20] of 82, a Locomotor activity [2] of 12 and a Locomotor activity [21] of 6. For the same molecule, the Locomotor activity [3] was 109, the Locomotor activity [22] was 5 and the Max temperature decrease [28] was 2.1. The ED50 [29] was 0.97 µmol/kg, the Locomotor activity [7] was 83 and the Ki [23] was 4.1 nM. For the same molecule, the Locomotor activity [10] was 65, the Locomotor activity [24] was 29 and the Intrinsic activity [11] was 44%. It also gave an ED50 [30] of 113 µmol/kg, a Locomotor activity [25] of 8 and a Locomotor activity [26] of 53. The Control [27] was -12%.
`CCCN1CC[C@H]2c3cccc(OC)c3CC[C@H]21` (racemic) gave a Control [31] of 34% and a Control [32] of 7%.
In the case of `COc1cccc2c1CC[C@@H]1[C@H]2CCN1CC1CC1` (racemic), the Control [33] is reported as -15% and -7% and the Ki [12] is reported as over 10000 nM.
`C=CCN1CC[C@@H]2c3ccccc3CC[C@H]21` (racemic) was tested, and the Ki [34] was over 1000 nM, the Control [35] was -7% and the Max temperature decrease [28] was 4.5. It also gave a Control [36] of 26% and an ED50 [37] of 45 µmol/kg.
